Measurements taken from patent US5420276A, “Analogs of oxetanyl purines and pyrimidines” (Abbott Laboratories, priority 1993, dated 1995).
Converted amounts (≈) assume the structure as drawn. Like-named read-outs stand apart in the source and are kept apart here.

Tests used:
[1] = Drug cytotoxicity in Vero cells (microscopic, CPE-inhibition assay); type: cell-based; conditions: african green monkey, minimum drug concentration causing any cytotoxicity, read-out: MTC
Experimental: (§1) Mammalian cells were pregrown as monolayers in wells of COSTAR 96-well tissue culture plates using suitable cell culture media. Stock viruses were pretitered according to the method of Reed and Muench (Amer. J. Hyg. 27:493-497, 1938) and diluted in cell culture medium to yield 32 CCID50 (cell culture infectious dose, 50%) units per 0.1 ml. Antiviral assays were designed to test seven concentrations of each compound, from cytotoxic to noncytotoxic levels, in triplicate against each of the challenge viruses in microtiter plate wells containing suitable cell monolayers. To each of the replicate cell cultures were added 0.1 ml of the test drug solution and 0.1 ml of virus suspension. Cell controls containing medium alone, virus controls containing medium and virus, and drug cytotoxicity controls containing medium and each drug concentration were run simultaneously with the test samples assayed in each experiment. […] The cell monolayers were examined microscopically for virus-induced CPE and for drug cytotoxicity.
(§2) Antiviral activity was determined by calculating the degree of inhibition of virus-induced CPE in drug-treated, virus-infected cell cultures by means of a virus rating (VR). The VR is a standard weighted measurement of antiviral activity taking into account both the degree of CPE inhibition and drug cytotoxicity, and is determined by a modification of the method of Ehrlich et al. (Ann. N.Y. Acad. Sci. 130: 5-16, 1965) as described below. CPE was graded for each individual culture in each microtiter plate well according to the following scale:
(§3) The minimum inhibitory drug concentration which reduced the cytopathogenic effect (CPE) by 50% (MIC50) was calculated by using a regression analysis program for semilog curve fitting. A therapeutic index (TI) for each active compound for each susceptible virus was determined by dividing the minimum cytotoxic concentration of the test compound by the MIC50.

[2] = system: Varicella-Zoster Virus (VZV) clinical isolate DM625; assay: VZV plaque reduction assay; type: cell-based; conditions: Human alphaherpesvirus 3, 144 h, VZV in HFF; for EC50: minimum concentration required to inhibit plaque formation by 50%, read-out: MIC50
Experimental: The compounds of the invention were evaluated for selective activity against varicella zoster virus (VCV) utilizing a plaque reduction assay procedure. The challenge virus was a clinical isolate designated DM625, obtained from Dr. Richard Whitley of the University of Alabama Hospitals, Birmingham, Ala. The virus had been passaged and titrated in cultures of human foreskin fibroblasts (HFF).
(§4) For the plaque reduction assay, sixth to twelfth passage human foreskin fibroblasts were seeded in wells of 12-well tissue culture plates and incubated at 37° C. in a humidified atmosphere containing 2% CO2 in air. Subconfluent HFF were rinsed with MEM and exposed to 0.5 ml/well of a suspension of VZV diluted in MEM+2% FBS for 2 hours at 37° C. Following the virus adsorption period, the inocula were removed and the infected cell layers were rinsed with MEM. Triplicate VZV-infected cell culture wells were treated with 1.0 ml of each concentration of test compound (in MEM+2% FBS). Six untreated virus-infected cell cultures and triplicate untreated uninfected cell cultures were fed with 1.0 ml of MEM+2% FBS to serve as controls. Wells containing uninfected HFF were treated with each concentration of test compound to monitor the test compound cytotoxicity. The 12-well plates were incubated at 37° C. in the CO2 incubator. At 48 hours post-virus infection (p.i.), fluids in all plate wells were replaced with fresh test compound and/or culture medium.
Six days p.i., the VZV plaques were counted (unstained, low magnification).The effect of each concentration of test compound on plaque formation was determined by comparing the mean number of plaques in the replicate test compound-treated cultures with the mean plaque counts of the untreated virus control cultures.
The MIC50 value is the minimum concentration of test Compound required to inhibit plaque formation by 50%.

[3] = system: Herpes simplex type 1 (HSV-1) strain E-377; assay: CPE-inhibition assay, herpes simplex type 1 strain E-377 in Vero cells; type: cell-based, herpes simplex virus type 1
Experimental: (§5) The challenge viruses were propagated and assayed in cells that were pregrown as monolayer cultures in plastic tissue culture flasks and 96-well plates, using cell culture media appropriate for the host cell cultures. The following viruses and host cell cultures were employed:
(§6) green monkey kidney (Vero)
(§7) On the day of use, a weighed sample of each compound to be evaluated was dissolved and diluted in serial 10^0.5 dilutions in the culture medium appropriate for each virus-host cell system.
as §1, §2
(§8) 4=100% of the cells affected by virus;
(§9) 3=75% of the cells affected by virus;
(§10) 2=50% of the cells affected by virus;
(§11) 1=25% of the cells affected by virus;
(§12) 0=No CPE; normal cell monolayer.
(§13) The VR was calculated as 0.1 of the sum of the numerical differences between the recorded CPE grade of each test well and that of the corresponding virus control in the culture plate. Numerical differences between the scores of test wells containing a drug concentration which was partially cytotoxic (p) and their corresponding virus controls were halved.
as §3

[4] = MTT test compound cytotoxicity in human foreskin fibroblasts; type: cell-based; conditions: hff cells, read-out: MTT assay (Percent of control)
Experimental: as §4
The test compound cytotoxicity control cultures were examined microscopically for gross morphologic changes, then treated with MTT and 30% SDS. The blue color of the MTT formazan was measured spectrophotometrically at 570 nm. Test compound cytotoxicity was determined by comparing the absorbance (O.D.) of each test compound control with the mean O.D. of the cell control cultures and expressed as percent of control.

[5] = system: Herpes simplex type 2 (HSV-2) strain MS; assay: CPE-inhibition assay, herpes simplex type 2 strain MS in Vero cells; type: cell-based, herpes simplex virus type 2
Experimental: as §5, §6, §7, §1, §2, §8, §9, §10, §11, §12, §13, §3

[6] = system: Herpes Simplex Virus Type 1; assay: Neutral red dye uptake assay for antiviral activity, HSV-1 in Vero cells; type: cell-based; conditions: Human alphaherpesvirus 1, HSV-1, Vero, concentration at which 50% CPE would be observed, read-out: MIC50
Experimental: (§14) Vero cell monolayers were harvested by trypsinization. The number of viable cells per ml. was determined by staining an aliquot with trypan blue and counting in a hemocytometer. Cell densities were adjusted in growth medium to contain 4×10^5 cells/mi. 96-well sterile tissue culture plates were seeded with 100 μl/well of the adjusted cell suspensions, i.e., 4×10^4 cells/well. Seeded plates were incubated overnight at 37° C. with CO2.
(§15) After overnight incubation, monolayers were approximately confluent. The growth medium was removed and the monolayers in each cell were infected with 100 μl of virus diluted in maintenance medium to produce approximately 90% cytopathogenic effect (CPE) after 2 to 3 days incubation. The virus was allowed to adsorb for 1 hour at 37° C. with 4 to 6% CO2. Controls for cell growth were overlayed with virus-free maintenance medium. The maintenance medium containing residual virus was removed.
(§16) The test compounds were dissolved and/or diluted in maintenance medium to the concentration desired for testing and were added to the wells of the plate. Aliquots (100 μl ) of each concentration were added to wells in replicate (duplicate or triplicate). Controls for virus activity were overlayed with drug-free maintenance medium. Replicate wells containing only maintenance medium served as controls for background absorbance levels.
After incubation, the medium was removed from all the wells. 100 μl of neutral red solution was added to each well and the plate was incubated at 37° C. without CO2 for 2 hours. After the 2 hour incubation, the excess neutral red solution was removed. […]
The neutral red stain taken up by the viable cells was extracted by adding 100 μl/well of acidified methanol, pH 1.0. […] The amount of neutral red stain extracted into the methanol was quantified by determining the absorbance at a wavelength of 540 nm.
The percent CPE in virus controls was determined by the following formula: [formula]
The percent CPE in cells infected with virus and treated with the test compound was determined by the following formula: [formula] […]

in vitro = type: cell-based, African green monkey; conditions: monkey, vero cells
Experimental: as §14, §15, §16
After incubation, the medium was removed from all the wells. 100 μl of neutral red solution was added to each well and the plate was incubated at 37° C. without CO2 for 2 hours. After the 2 hour incubation, the excess neutral red solution was removed. The plates were washed with 100 μl/well of PBS, pH 7.2 and then the PBS was removed.
The neutral red stain taken up by the viable cells was extracted by adding 100 μl/well of acidified methanol, pH 1.0. (The acidified methanol fixed the cells to the well). The plate was allowed to stand at room temperature for at least 15 minutes to allow for maximum extraction. The amount of neutral red stain extracted into the methanol was quantified by determining the absorbance at a wavelength of 540 nm. […]

HSV-1 (E-377) = assay: CPE inhibition assay (MTT), HSV-1 (E-377) in Vero cells; type: cell-based, herpes simplex virus type 1; conditions: Human alphaherpesvirus 1, inhibited CPE by 50%
Experimental: Vero cells were pregrown as monolayers in wells of COSTAR 96-well tissue culture plates using suitable cell culture media. Stock viruses were pretitered according to the method of Reed and Muench (Amer. J. Hyg. 27 493 (1938)) and diluted in cell culture medium to yield 32 CCID50 (cell culture infectious dose, 50%) units per 0.1 mL. Antiviral assays were designed to test six concentrations of each compound, from cytotoxic to noncytotoxic levels, in triplicate against each of the challenge viruses in microtiter plate wells containing cell monolayers. To each of the replicate cell cultures were added 0.1 mL of the test-compound solution and 0.1 mL of virus suspension. Two compounds were evaluated per plate. The following controls were included:
(1) Cell controls containing cells+medium;
(2) Untreated, virus-infected cell controls;
(3) Test-compound cytotoxicity controls containing uninfected, test-compound treated cells;
(4) Test-compound color controls-test-compound+medium (no cells); and
(5) Reagent (experiment medium) controls-medium only (no cells).
The covered plates were incubated at 37° C. in a humidified atmosphere containing 2% CO2. When cytopathogenic effect (CPE) in untreated virus control wells reached 100%, 20 μL of 3-(4,5-dimethyl-thiazol-2-yl)-2,5-diphenyl tetrazolium bromide (MTT) (dissolved in PBS at 5 mg/mL) was pipetted into each of the plate wells. The plates were incubated at 37° C. for six hours; then 40 μL of 30% SDS (in 0.02N HCl) was added to each well. After overnight incubation at 37° C., the blue color or the MTT formazan was measured spectrophotometrically at 570 nm. The optical density (OD) value of each culture is a function of the amount of formazan produced which is proportional to the number of viable cells. A computer program was utilized to calculate the percent (CPE) reciprocal of % CPE reduction) of the virus-infected wells and % cell viability of the uninfected test-compound control wells.
The IC50 value is the minimum test-compound concentration (μg/mL) that inhibited CPE by 50% calculated by using a regression analysis program for semilog curve fitting. The TC25 value is the minimum test-compound concentration (μg/mL) that reduced cell viability by 25%.

EC50 [2] [µg/mL]	SMILES	inhibition at 0.032 µM [2] [%]	inhibition at 0.1 µM [2] [%]	inhibition at 0.32 µM [2] [%]	inhibition at 1 µM [2] [%]	inhibition at 3.2 µM [2] [%]	viability at 0.1 µM [4] [%]	viability at 0.32 µM [4] [%]	viability at 1 µM [4] [%]	viability at 3.2 µM [4] [%]	further results
0.09 (≈ 0.372 µM)	Cc1cn([C@@H]2O[C@H](CO)[C@H]2CO)c(=O)[nH]c1=O [Example 21, 1-([2'R, 3'R, 4'S]-3',4'-Bis(hydroxymethyl)-2'-oxetanyl)5-methyluracil]	16	55	97	100	100	93	84	87	87	MCC ([1]; HSV-1 (E-377)): 320 µg/mL; MCC ([1]; HSV-2 (MS)): > 320 µg/mL; VR (Virus Rating) ([3]; HSV-1 (E-377)): 5.9; IC50 ([3]; Human alphaherpesvirus 1, HSV-1 (E-377), minimum drug concentration that inhibited the CPE by 50%, read-out: ID50 (the source's name)): 0.2 µg/mL (≈ 0.826 µM); VR (Virus Rating) ([5]; HSV-2 (MS)): 2.9; IC50 ([5]; Human alphaherpesvirus 2, HSV-2 (MS), minimum drug concentration that inhibited the CPE by 50%, read-out: ID50 (the source's name)): 44.3 µg/mL (≈ 183 µM)
–	CCc1cn([C@@H]2O[C@H](CO)[C@H]2CO)c(=O)[nH]c1=O [Example 48, 1-([2'R, 3'R, 4'S]-3',4'-Bis(hydroxymethyl)-2'-oxetanyl)-5-ethyluracil]	–	–	–	–	–	–	–	–	–	EC50 [6]: 0.06 µg/mL (≈ 0.234 µM); CC50 (in vitro): 350 µg/mL (≈ 1370 µM)
0.004 (≈ 0.0139 µM)	O=c1[nH]c(=O)n([C@@H]2O[C@H](CO)[C@H]2CO)cc1C=CCl [Example 50, 1-([2'R, 3'R, 4'S]-3',4'-Bis(hydroxymethyl)-2'-oxetanyl)-5-(2-chloro-1-vinyl)uracil]	90	99	98	99	–	100	100	100	–	IC50 (HSV-1 (E-377)): 0.74 µg/mL (≈ 2.56 µM); inhibition at 0.0032 µM ([2]; 0.0032 μM): 7%; inhibition at 0.01 µM ([2]; 0.01 μM): 45%
0.045 (≈ 0.169 µM)	CC#Cc1cn([C@@H]2O[C@H](CO)[C@H]2CO)c(=O)[nH]c1=O [Example 68, 1-([2'R, 3'R, 4'S]-3',4'-Bis(hydroxymethyl)-2'-oxetanyl)-5-propynyluracil]	3	38	92	99	100	100	100	98	100	viability at 0.032 µM ([4]; 0.032 μM): 100%
